From ChEMBL document CHEMBL1759842, “Discovery of non-glucoside SGLT2 inhibitors” (Bioorg Med Chem Lett, 2011)
pIC50: −log10 of the molar value.

Assays:
[1] = biological target: T1, Sodium/glucose cotransporter 2 (Homo sapiens, UniProt P31639); assay: Inhibition of human SGLT2 expressed in CHO cells assessed as inhibition of [14C]-alpha-methyl-D-glucopyranoside transport after 60 mins by scintillation counting; format: cell-based
T1 sequence (P31639 whole entry): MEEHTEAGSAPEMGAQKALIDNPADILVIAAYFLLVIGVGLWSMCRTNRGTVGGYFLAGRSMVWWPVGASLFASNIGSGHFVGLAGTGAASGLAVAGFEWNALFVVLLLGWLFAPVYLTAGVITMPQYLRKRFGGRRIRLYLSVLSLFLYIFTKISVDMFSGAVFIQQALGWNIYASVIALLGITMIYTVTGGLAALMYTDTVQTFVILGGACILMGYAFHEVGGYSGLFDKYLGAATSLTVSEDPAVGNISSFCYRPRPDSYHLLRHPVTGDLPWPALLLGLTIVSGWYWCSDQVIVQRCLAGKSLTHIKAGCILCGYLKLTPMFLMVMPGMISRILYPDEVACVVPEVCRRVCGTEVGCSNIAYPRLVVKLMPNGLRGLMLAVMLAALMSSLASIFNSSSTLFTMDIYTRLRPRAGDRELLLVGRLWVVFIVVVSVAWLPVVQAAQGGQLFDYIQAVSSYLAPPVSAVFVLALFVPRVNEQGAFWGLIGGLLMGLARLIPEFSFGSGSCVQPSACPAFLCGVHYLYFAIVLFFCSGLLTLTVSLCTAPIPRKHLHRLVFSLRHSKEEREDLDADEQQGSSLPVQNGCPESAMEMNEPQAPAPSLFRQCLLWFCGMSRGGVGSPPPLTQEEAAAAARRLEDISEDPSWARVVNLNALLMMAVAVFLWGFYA

[2] = biological target: T2, Sodium/glucose cotransporter 1 (Homo sapiens, UniProt P13866); assay: Inhibition of human SGLT1 expressed in CHO cells assessed as inhibition of [14C]-alpha-methyl-D-glucopyranoside transport after 60 mins by scintillation counting; format: cell-based
T2 sequence (P13866 whole entry): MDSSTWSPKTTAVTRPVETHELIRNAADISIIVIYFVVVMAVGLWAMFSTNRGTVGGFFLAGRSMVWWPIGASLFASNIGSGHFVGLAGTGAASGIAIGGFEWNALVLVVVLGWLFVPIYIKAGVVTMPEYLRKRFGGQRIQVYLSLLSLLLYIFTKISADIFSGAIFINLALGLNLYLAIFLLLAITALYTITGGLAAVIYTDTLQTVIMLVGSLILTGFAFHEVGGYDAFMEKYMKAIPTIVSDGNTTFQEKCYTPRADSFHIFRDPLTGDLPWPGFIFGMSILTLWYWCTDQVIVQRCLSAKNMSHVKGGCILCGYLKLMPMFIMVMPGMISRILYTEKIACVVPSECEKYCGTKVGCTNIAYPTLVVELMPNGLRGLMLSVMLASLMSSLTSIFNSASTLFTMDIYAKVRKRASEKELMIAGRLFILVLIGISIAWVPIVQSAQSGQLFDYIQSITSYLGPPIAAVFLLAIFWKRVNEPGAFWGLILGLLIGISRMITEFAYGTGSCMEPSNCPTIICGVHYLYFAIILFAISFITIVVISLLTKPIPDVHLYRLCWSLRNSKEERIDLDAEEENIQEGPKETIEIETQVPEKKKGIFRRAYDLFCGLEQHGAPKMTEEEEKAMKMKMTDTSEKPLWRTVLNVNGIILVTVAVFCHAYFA

[3] = biological target: T1, Sodium/glucose cotransporter 2; assay: Displacement of [3H]dapagliflozin from human SGLT2 expressed in CHO cells after 60 mins by scintillation counting; format: cell-based
[4] = Metabolic stability in rat liver microsomes assessed as compound remaining after 30 mins; format: ADME, Microsome; settings: read-out: Stability
[5] = Metabolic stability in human liver microsomes assessed as compound remaining after 30 mins; format: ADME, Microsome; settings: read-out: Stability
[6] = biological target: T3, Sodium/myo-inositol cotransporter 2 (Homo sapiens, UniProt Q8WWX8); assay: Inhibition of SGLT6 expressed in CHO cells assessed as inhibition of [14C]-alpha-methyl-D-glucopyranoside transport after 60 mins by scintillation counting; format: cell-based
T3 sequence (Q8WWX8 whole entry): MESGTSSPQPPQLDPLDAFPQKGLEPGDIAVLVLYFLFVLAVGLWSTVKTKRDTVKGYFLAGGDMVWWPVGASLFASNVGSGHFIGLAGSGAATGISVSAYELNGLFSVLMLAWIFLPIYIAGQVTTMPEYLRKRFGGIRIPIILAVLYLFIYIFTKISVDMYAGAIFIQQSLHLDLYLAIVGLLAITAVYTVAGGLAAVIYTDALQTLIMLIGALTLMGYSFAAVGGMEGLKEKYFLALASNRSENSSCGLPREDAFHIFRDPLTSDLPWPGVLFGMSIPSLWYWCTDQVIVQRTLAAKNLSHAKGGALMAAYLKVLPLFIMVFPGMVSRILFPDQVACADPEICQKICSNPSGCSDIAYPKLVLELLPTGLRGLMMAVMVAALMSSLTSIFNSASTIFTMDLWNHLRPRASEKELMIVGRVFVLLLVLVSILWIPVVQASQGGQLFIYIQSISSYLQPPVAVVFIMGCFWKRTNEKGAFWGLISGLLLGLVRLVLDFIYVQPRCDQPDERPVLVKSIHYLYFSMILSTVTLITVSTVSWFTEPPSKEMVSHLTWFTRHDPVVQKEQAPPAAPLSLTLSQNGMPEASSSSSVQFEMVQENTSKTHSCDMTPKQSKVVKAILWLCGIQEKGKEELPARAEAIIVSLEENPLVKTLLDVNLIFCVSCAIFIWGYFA

[7] = biological target: T1, Sodium/glucose cotransporter 2; assay: Inhibition of human SGLT2 expressed in CHO cells assessed as inhibition of [14C]-alpha-methyl-D-glucopyranoside transport after 60 mins by scintillation counting in presence of 100% plasma; format: cell-based

Compound	pIC50 [1]	pIC50 [2]	also measured
CCn1c(CN2C(=O)CSc3ccc(C(F)(F)F)cc32)nnc1SCc1ccc(Cl)cc1	6.43	5.32	
CC(C)n1c(CN2C(=O)CSc3ccc(C(F)(F)F)cc32)nnc1SCc1ccc(Cl)cc1	5.92	5.70	
O=C1CSc2ccc(C(F)(F)F)cc2N1Cc1nnc(SCc2ccc(Cl)cc2)n1C1CC1	5.96	5.43	
O=C1CSc2ccc(C(F)(F)F)cc2N1Cc1nnc(SCc2ccc(Cl)cc2)n1-c1ccccc1	5.68	5.46	
CCn1c(CN2C(=O)COc3ccc(C(F)(F)F)cc32)nnc1SCc1ccc(Cl)cc1	6.60	5.18	
CCn1c(CN2C(=O)COc3ccc([N+](=O)[O-])cc32)nnc1SCc1ccc(Cl)cc1	5.68	5.25	
CCn1c(CN2C(=O)COc3ccc(Br)cc32)nnc1SCc1ccc(Cl)cc1	7.05	5.27	
CCn1c(CN2C(=O)COc3ccc(Cl)cc32)nnc1SCc1ccc(Cl)cc1	6.82	5.13	
CCn1c(CN2C(=O)COc3ccc(C)cc32)nnc1SCc1ccc(Cl)cc1	7.10	5.15	
CCn1c(CCc2ccc(Cl)cc2)nnc1CN1C(=O)COc2ccc(C(F)(F)F)cc21	6.19	4.34	
CCCn1c(CCc2ccc(Cl)cc2)nnc1CN1C(=O)COc2ccc(C(F)(F)F)cc21	6.74	5.01	
O=C1COc2ccc(Cl)cc2N1Cc1nnc(CCc2ccc(Cl)cc2)n1CC1CC1	7.52	5.14	
CC(C)Cn1c(CCc2ccc(Cl)cc2)nnc1CN1C(=O)COc2ccc(Cl)cc21	6.80	5.16	
O=C1COc2ccc(Cl)cc2N1Cc1nnc(CCc2ccc(Cl)cc2)n1CCC(F)(F)F	7.15	4.86	
O=C1COc2ccc(Cl)cc2N1Cc1nnc(CCc2ccc(Cl)cc2)n1C1CC1	5.80	4.60	
O=C1COc2c(Cl)cc(Cl)cc2N1Cc1nnc(CCc2ccc(Cl)cc2)n1CCC(F)(F)F			remaining at 0.5 h [4]: 4%; remaining at 0.5 h [5]: 4%; pIC50 [6]: 5.04
CCOc1ccc(Cc2cc([C@@H]3O[C@H](CO)[C@@H](O)[C@H](O)[C@H]3O)ccc2Cl)cc1 [DAPAGLIFLOZIN]			pIC50 [6]: 6.42

Second part, led by results:

pIC50 [1]	pIC50 [2]	Compound	also measured
6.37	5.48	CCn1c(CN2C(=O)COc3cc(Cl)ccc32)nnc1SCc1ccc(Cl)cc1	
6.28	5.60	CCn1c(CN2C(=O)COc3cc(Br)ccc32)nnc1SCc1ccc(Cl)cc1	
6.82	5.13	CCn1c(CN2C(=O)COc3c(Cl)cccc32)nnc1SCc1ccc(Cl)cc1	
7.40	4.87	CCCn1c(CCc2ccc(Cl)cc2)nnc1CN1C(=O)COc2ccc(Cl)cc21	
7.52	4.93	CCCCn1c(CCc2ccc(Cl)cc2)nnc1CN1C(=O)COc2ccc(Cl)cc21	
8.05	5.04	CCCn1c(CCc2ccc(Cl)cc2)nnc1CN1C(=O)COc2c(Cl)cc(Cl)cc21	pIC50 [3]: 7.80; remaining at 0.5 h [4]: 4%; remaining at 0.5 h [5]: 4%; pIC50 [6]: 4.84; pIC50 [7]: 7.40
